Laboratory results: patent publication US7045343B2, “Sterilization indicator test packs” (3M Innovative Properties Company, priority 1998, dated 2006)

System: enzyme associated with Bacillus stearothermophilus spores
Experiment: Rapid enzyme fluorescence readout of dual rapid readout indicators after prevacuum steam sterilization
Assay type: biochemical
Settings: 4-pulse prevacuum steam 121° C.
Outline: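 Bacillus stearothermophilus ATCC 7953 spores were coated with a sterilant-resistant chemical solution and pipetted onto paper strips at about 1×10^6 spores per strip. Each strip sat in a dual rapid readout indicator beside a crushable inner container of nutrient medium holding 4-methylumbelliferyl-alpha-D-glucoside at pH 7.6. Indicators went through a 4-pulse prevacuum steam cycle at 121° C, were activated, incubated at 60° C, and read for fluorescence on a 3M ATTEST Model 190 Rapid Autoreader.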

[1] = Example 4, 50 mg/ml coating, 7–18 min
[2] = Example 4, 100 mg/ml coating, 7–18 min
[3] = Example 1, 10 mg/ml coating, 7–13 min
[4] = Example 1, 20 mg/ml coating, 7–13 min
[5] = Example 1, 40 mg/ml coating, 7–13 min
[6] = Example 1, 80 mg/ml coating, 7–13 min
[7] = Example 1, 100 mg/ml coating, 7–13 min
[8] = Example 3, 100 mg/ml coating, 7–15 min

Decaglyceryl Decaoleate
FLUORESCENCE - PERCENT POSITIVE 1 HR [1]: 0% | FLUORESCENCE - PERCENT POSITIVE 2 HR [1]: 19.4% | FLUORESCENCE - PERCENT POSITIVE 3 HR [1]: 29.0% | FLUORESCENCE - PERCENT POSITIVE 4 HR [1]: 41.9% | FLUORESCENCE - PERCENT POSITIVE 1 HR [2]: 16.7% | FLUORESCENCE - PERCENT POSITIVE 2 HR [2]: 20% | FLUORESCENCE - PERCENT POSITIVE 3 HR [2]: 30% | FLUORESCENCE - PERCENT POSITIVE 4 HR [2]: 50%

Decaglyceryl Monostearate
accuracy of sterilization indicators compared to indicators made with untreated spores: improved | accuracy of sterilization indicators compared to indicators made with untreated spores (listed as decaglycerol monostearate): improved accuracy | FLUORESCENCE - PERCENT POSITIVE 1 HR [3]: 0% | FLUORESCENCE - PERCENT POSITIVE 2 HR [3]: 41.0% | FLUORESCENCE - PERCENT POSITIVE 3 HR [3]: 74.4% | FLUORESCENCE - PERCENT POSITIVE 4 HR [3]: 82.1% | FLUORESCENCE - PERCENT POSITIVE 5 HR [3]: 87.2% | FLUORESCENCE - PERCENT POSITIVE 6 HR [3]: 89.7% | FLUORESCENCE - PERCENT POSITIVE 1 HR [4]: 0% | FLUORESCENCE - PERCENT POSITIVE 2 HR [4]: 17.6% | FLUORESCENCE - PERCENT POSITIVE 3 HR [4]: 73.5% | FLUORESCENCE - PERCENT POSITIVE 4 HR [4]: 91.2% | FLUORESCENCE - PERCENT POSITIVE 5 HR [4]: 100% | FLUORESCENCE - PERCENT POSITIVE 6 HR [4]: 100% | FLUORESCENCE - PERCENT POSITIVE 1 HR [5]: 0% | FLUORESCENCE - PERCENT POSITIVE 2 HR [5]: 69.5% | FLUORESCENCE - PERCENT POSITIVE 3 HR [5]: 91.5% | FLUORESCENCE - PERCENT POSITIVE 4 HR [5]: 100% | FLUORESCENCE - PERCENT POSITIVE 5 HR [5]: 100% | FLUORESCENCE - PERCENT POSITIVE 6 HR [5]: 100% | FLUORESCENCE - PERCENT POSITIVE 1 HR [6]: 0% | FLUORESCENCE - PERCENT POSITIVE 2 HR [6]: 85.5% | FLUORESCENCE - PERCENT POSITIVE 3 HR [6]: 96.4% | FLUORESCENCE - PERCENT POSITIVE 4 HR [6]: 100% | FLUORESCENCE - PERCENT POSITIVE 5 HR [6]: 100% | FLUORESCENCE - PERCENT POSITIVE 6 HR [6]: 100% | FLUORESCENCE - PERCENT POSITIVE 1 HR [7]: 8.8% | FLUORESCENCE - PERCENT POSITIVE 2 HR [7]: 85.3% | FLUORESCENCE - PERCENT POSITIVE 3 HR [7]: 100% | FLUORESCENCE - PERCENT POSITIVE 4 HR [7]: 100% | FLUORESCENCE - PERCENT POSITIVE 5 HR [7]: 100% | FLUORESCENCE - PERCENT POSITIVE 6 HR [7]: 100% | FLUORESCENCE - PERCENT POSITIVE 1 HR [8]: 0% | FLUORESCENCE - PERCENT POSITIVE 2 HR [8]: 100.0% | FLUORESCENCE - PERCENT POSITIVE 3 HR [8]: 100.0% | FLUORESCENCE - PERCENT POSITIVE 4 HR [8]: 100.0% | FLUORESCENCE - PERCENT POSITIVE 1 HR [1]: 13.8% | FLUORESCENCE - PERCENT POSITIVE 2 HR [1]: 86.2% | FLUORESCENCE - PERCENT POSITIVE 3 HR [1]: 100.0% | FLUORESCENCE - PERCENT POSITIVE 4 HR [1]: 100.0%
